Assay results from patent US20040109845A1, “Method for inhibiting articular cartilage matrix calcification” (priority 2001, published 2004).
“Also recorded” adds a separate entry of the source.

Assays:
[1] = tested on: TGase activity (tTGase and Factor XIIIa) in meniscal cells; assay: TGase activity in cultured knee meniscal cells (BP incorporation into N,N-dimethylcasein); type: cell-based, human; settings: monolayer culture, 48-72 hrs; IL-1β, TGFβ, TNFα 10 ng/ml; Noc-12 2.5-25 μM; Sin-1 1-10 μM
Protocol: Meniscal cells were maintained in DMEM high glucose and supplemented with 10% FCS, 1% L-glutamine, 100 units/ml Penicillin and 50 μg/ml Streptomycin (Omega Scientific, Tarzana, Calif.) and cultured at 37° C. with 5% CO2. In monolayer cell culture studies involving stimulation by TGFE[…] or IL-1, the cells were placed in DMEM high glucose containing 1% FCS, 1% L-glutamine, 100 units/ml Penicillin and 50 μg/ml Streptomycin. In all other studies, the cells were cultured in complete medium (as described above). Only primary or first passage meniscal cells were studied.
(§1) TGase activity was measured by modifications to a previously described method (35). Specifically, we coated 96 well ImmunoModule plates (Nunc, Rochester, N.Y.) with 200 μl of 20 mg/ml N,N-dimethylcasein for 1 hr at 23° C. The N,N-dimethylcasein was removed and nonspecific protein binding was blocked by adding 3% BSA in 100 mM Tris, pH 8.5, 150 mM NaCl, 0.05% Tween-20 (TBST) to each well for an additional 1 hr at 23° C. Then, aliquots of 5 μg of total cellular protein from meniscal or TC28 cells that had been lysed and sonicated (in 5 mM Tris HCl, 0.25 M sucrose, 0.2 mM MgSO4, 2 mM DTT, 0.4 mM PMSF, 0.4% Triton X100, pH 7.5), were added to the plate in triplicate. To measure TGase in extracts of whole menisci, 50 mg dry weight of tissue from the central zone of each medial meniscus was used as the source (after solubilization and sonication) for aliquots of 5 μg of soluble protein. Fifty μl of solution A (100 mM Tris, pH 8.5 and 20 mM CaCl2) was added to all samples for TGase assay, followed by the addition of 50 μl of solution B (100 mM Tris, pH 8.5, 40 mM DTT and freshly added 2 mM 5-(Biotinamido) pentylamine (BP)). The plates were incubated for 1 hr at 37° C. The wells were washed once with TBST containing 1 mM EDTA and then three times with TBST. One hundred μl of a 1:500 dilution of streptavidin-AP in 3% BSA/TBST was added to each well for 1 hr at 23° C. The wells were washed twice with TBST, and 200 μl of solution C (100 mM Tris, pH 9.8, mM NaCl, 5 mM MgCl2, 1 mg/ml of freshly added p-nitrophenylphosphate) was added to each well. Readings at OD410 were taken over 15 minutes. Purified guinea pig liver TGase (Sigma) was used to prepare a standard curve. TGase activity was designated as the amount of BP incorporated into casein (per μg cellular DNA, determined chromogenically following precipitation in perchlorate (28), or, where indicated, per μg protein, determined as previously described (28)).
To directly induce expression of each TGase in meniscal cells, 5×10^5 primary cells were plated in 60 mm dishes and allowed to adhere overnight. We modified (28) the manufacturer's protocol for the Lipofectamine Plus kit (Life Technologies, Grand Island, N.Y.). To optimize the transfection of meniscal cells, we added 2.0 ml of serum-free DMEM/F12 containing 0.00015% digitonin to washed cells and incubated for 3 min at 23° C. Then, media was removed, and cells transfected at 37° C. for 7 hrs, followed by removal of the media and addition of complete DMEM high glucose medium. Transfection of each TGase into TC28 cells was done by the same procedure, with the exception that the digitonin permeabilization step was omitted.

[2] = tested on: TGase activity in knee meniscal cells and TC28 cells; assay: TGase activity in nonadherent nodule-forming culture on polyHEME; type: cell-based, human; settings: polyHEME plates, β-glycerophosphate, ascorbate, dexamethasone, up to 10 days; cytokines 10 ng/ml or TGase transfection
Protocol: FIG. 10 refers to effects of direct Factor XIIIa and tTGase expression on TGase activity in meniscal cells and TC28 cells. Human chondrocytic TC28 cells or normal knee meniscal cells (5×10^5), were plated in 60 mm dishes and allowed to adhere overnight, as described in the Methods. Two μg of plasmid DNAs or empty plasmid vector were then transfected, performed as described above. After 24 hrs, the cells were removed from the dishes and plated on polyHEME-coated tissue culture plates and media supplemented with 10 mM P-glycerophosphate, ascorbatte (50 μg/ml) and dexamethasone (10^−8 M), which stimulated the cells to form mineralizing nodules for 3-10 days in culture. For comparison purposes, cells were treated only with IL-1 or TGFβ (10 ng/ml each) for up to 10 days. At each time point designated, the cell nodules were collected and lysed, and TGase activity then determined as previously described. For meniscal cells, data pooled from 6 donors studied in triplicate. For TC28 cells, n=6 each, studied in triplicate. Statistics not indicated on this graph, but p<0.05 for the increases in TGase activities in response to both Factor XIIIa and tTGase transfection, and for IL-1 treatment, at all time points.
as §1, with “One hundred μl of a 1:500 dilution of streptavidin-AP in 3% BSA/TBST was added to each well for 1 hr at 23° C. The wells were washed twice with TBST, and 200 μl of solution C (100 mM Tris, pH 9.8, mM NaCl, 5 mM MgCl2, 1 mg/ml of freshly added p-nitrophenylphosphate) was added to each well.” left out, “Purified guinea pig liver TGase (Sigma) was used to prepare a standard curve.” left out, “(28)). […]” for “(28)).”

[3] = tested on: meniscal cells and TC28 cells; assay: Matrix calcification, quantitative Alizarin Red S binding assay; type: cell-based, human; settings: polyHEME culture up to 10 days; cytokines 10 ng/ml or TGase transfection
Protocol: TC28 cells and meniscal cells were transfected with empty plasmid or a TGase expression construct, and then transferred to polyHEME and cultured for up to 10 days, as described above. For comparison purposes, control untransfected cells were treated with IL-1 or TGFβ(10 ng/ml each) for up to 10 days. To measure matrix calcification, media and cells were removed from the PolyHEME-coated dishes, and 1 ml Alizarin Red S solution (0.5% v/v Alizarin Red S, pH 5.0) added to washed plates at 23° C. for 10 min. After further washing, 100 mM Cetylpyridium Chloride was added for 10 min to release the remaining calcium-bound Alizarin Red S. The solution was collected and read at OD570, with 1.0 OD570=1 unit of Alizarin Red released per μg of DNA per culture dish. n=6 each, studied in triplicate, and using 6 different knee meniscal donors. *p<0.05.
To promote matrix calcification in short-term cultures, we modified a nonadherent chondrocyte culture system (37), and assessed cells that formed calcifying nodules over 10 days in culture. In brief, meniscal and TC28 cells, at 24 hours after the transfection, were washed and removed from the dish using 0.2 mg/ml EDTA, pH 8.0, then transferred to 6 well plates that had been previously coated with a 10% (wt./v) in 95% ethanol solution of Poly (2-Hydroxyethyl methacrylate) (polyHEME). […]
To assay calcification of the pericellular matrix of meniscal cells and TC28 cells, we used a quantitative Alizarin Red S binding assay (38). […] The solution was collected and read at OD570 on a SpectraMAX microplate reader (Molecular Devices, Sunnyvale, Calif.), with 1 OD570=1 unit of Alizarin Red released per μg of DNA per culture dish. We extracted matrix crystals from plates under each condition using a papain-hypochlorite method (39), and the crystals were embedded in Spurr epoxy resin, sectioned, and viewed on a Philips EM340 transmission electron micrograph and analyzed by electron diffraction (40,41).

[4] = tested on: S100A11 mRNA in human articular chondrocytes; assay: S100A11 mRNA expression by RT-PCR; type: cell-based; settings: 10 ng/ml, 24 hours, relative to L30
Protocol: Normal human knee articular chondrocytes were treated in culture with IL-1 or IGF-I (10 ng/ml) for 24 hours and ascertained for S100A11 mRNA expression by RT-PCR, relative to the loading control L30, a ribosomal housekeeping gene. Results for induction of S100 A11 representative of 3 separate experiments with different donors.

[5] = tested on: alkaline phosphatase (AP); assay: AP activity of cultured meniscal cells; type: cell-based, human; settings: 48 h, 10 ng/ml
Protocol: (§2) Meniscal cells (from the same donors used in FIG. 3 above) were released from the matrix with collagenase digestion, and grown in monolayer culture for 72 hrs, then trypsinized and plated in 35 mm dishes (containing 3×10^5 cells) and allowed to adhere overnight. Cells were then treated for 48 h with 10 ng/ml of TGFβ or IL-1β (10 ng/ml) in 1% FCS-containing DMEM high glucose medium. The cells were collected and lysed for the TGase (FIG. 5A), NTPPPH (FIG. 5B), and AP (FIG. 5C) assays as described in the Methods. Five micrograms of soluble protein was studied in triplicate for each assay performed as previously described. Results were analyzed by linear regression, with results indicated.
(§3) PPi was determined by differential adsorption on activated charcoal of UDP-D-[6-^3H] glucose (Amersham, Chicago, Ill.) from the reaction product 6-phospho [6-^3H] gluconate (28). Units of NTPPPH and AP were designated as micromoles of substrate hydrolyzed per hour (per μg DNA in each sample) (28). NO release by cultured meniscal cells was measured using the Greiss reaction (33). Concentrations or specific activities of PPi, NTPPPH, and AP were equalized for cellular DNA concentrations in each well.

[6] = tested on: tTGase and Factor XIIIa expression in knee articular cartilage and medial meniscus; assay: Immunohistochemistry of cartilage organ culture; type: cell-based, human; settings: organ culture 48 hours
Protocol: Articular cartilage and medial menisci from normal donors were studied in cartilage organ culture in media supplemented with 1% FCS and 1% L-glutamine, as described in the Methods, following 48 hours of treatment with TGFβ 10 ng/ml, IL-1β (1 ng/ml), or medium alone.
Immunohistochemistry was performed as previously described in detail (30,33,34). In brief, immunohistochemical sections (5 microns) were pretreated with bovine testicular hyaluronidase (0.5 mg/ml at 37° C. for 30 min) and incubated in 5% normal goat or rabbit serum for 20 min prior to avidin/biotin peroxidase staining by the ABC method. Hematoxilin was used as the counterstain. Biotinylated anti-rabbit or anti-goat antibodies served as secondary antibodies. Levamisole was added to block endogenous alkaline phosphatase (AP). Negative controls were nonimmune rabbit or goat serum as a substitute for primary antibody.
Meniscal cells were taken from tissue slices removed from the central regions of the medial and lateral menisci. Where indicated, meniscal organ culture was performed by incubating these slices for b 48 hours in DMEM high glucose containing 1% FCS and 1% L-glutamine (and articular cartilage organ culture performed in the same manner, where indicated). Otherwise, we minced meniscal tissue with a scalpel, incubated in DMEM high glucose containing 2 mg/ml clostridial collagenase, 5% FCS, 1% L-glutamine, 100 units/ml Penicillin and 50 μg/ml Streptomycin (Omega Scientific, Tarzana, Calif.), and incubated on a gyratory shaker at 37° C. until the tissue fragments were digested. Residual multicellular aggregates were removed by sedimentation (1,000×g), and cells were washed three times in DMEM containing 5% FCS.

NTPPPH = NTPPPH activity of cultured meniscal cells; type: cell-based, human; settings: 48 h, 10 ng/ml
Protocol: as §2, §3

## CCNCCN(CC)N(O)N=O [Noc-12, reference compound]
[1]
  Induction of TGase activity in cultured normal knee meniscal cells: shared the ability of II-1 to induce TGase activity

## [NH-]c1c[n+](N2CCOCC2)no1 [Sin-1, reference compound]
[1]
  Induction of TGase activity in cultured normal knee meniscal cells: shared the ability of II-1 to induce TGase activity

## Factor XIIIa: recombinant human Factor XIIIa cDNA in pUC18, transfected into meniscal and TC28 cells
[2]
  TGase activity under mineralizing nonadherent conditions: markedly increased TGase activity
[3]
  Matrix calcification (bound Alizarin Red S): induced particularly marked increases in the amount of calcium precipitated in the matrix

## IGF-1: IGF-1, involved in the pathogenesis of osteoarthritis
[4]
  S100A11 mRNA expression: induce mRNA expression of S100A11

## TGFβ: Human recombinant TGF-β1 purchased from R&D Systems
[5]
  AP activity: did not significantly change
[6]; knee articular cartilage and meniscal cartilage slices, TGFβ 10 ng/ml, IL-1β 1 ng/ml
  tTGase and Factor XIIIa immunostaining: induced increased tTGase and Factor XIIIa immunostaining
[6]; knee articular cartilage
  tTGase expression: up-regulated tTGase expression
[1]
  Induction of TGase activity in cultured normal knee meniscal cells: did not induce TGase activity; also recorded: but not TGFβ
[2]
  TGase activity under mineralizing nonadherent conditions: did not significantly augment activity of TGase
NTPPPH
  NTPPPH activity: stimulated increased NTPPPH activity in association with aging

## TNFα
[1]
  Induction of TGase activity in cultured normal knee meniscal cells: stimulated increased TGase activity; also recorded: induce TGase activity

## tTGase: human 3.3 kb full length tTGase cDNA construct in pSG5, transfected into cells
[2]
  TGase activity under mineralizing nonadherent conditions: markedly increased TGase activity
[3]
  Matrix calcification (bound Alizarin Red S): induced particularly marked increases in the amount of calcium precipitated in the matrix
